Where a name gives a salt, the structure may show the parent alone.
Target: T1, PPARδ (Homo sapiens, UniProt Q03181)
T1 construct: fused to amino acids 147-441 of PPARδ downstream of CMV promoter; expressed in transfected cells; host or cells: HEK293 cells, transiently transfected with pFACMV-PPARδ using Fugene
T1 sequence (Q03181 147-441): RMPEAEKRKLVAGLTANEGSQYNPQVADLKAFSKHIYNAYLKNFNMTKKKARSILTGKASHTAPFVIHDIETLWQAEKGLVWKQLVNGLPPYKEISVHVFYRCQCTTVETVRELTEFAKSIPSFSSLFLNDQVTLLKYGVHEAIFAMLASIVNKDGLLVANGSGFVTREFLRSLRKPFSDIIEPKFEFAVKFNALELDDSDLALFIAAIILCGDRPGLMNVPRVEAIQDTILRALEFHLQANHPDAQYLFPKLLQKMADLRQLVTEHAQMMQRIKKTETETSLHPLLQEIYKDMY
Assay: Transactivation assay (PPARδ GAL4 assay) in transiently transfected HEK293 cells
Type: cell-based
Settings: luciferase reporter, Table 2
Method in brief: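 Luciferase luminescence after 24 h compound treatment (0-30 μM final, OptiMEM, 37° C./5% CO2) gave EC50 by sigmoidal fitting, with activity normalised to GW501516 as percent. Reporter system: transiently transfected HEK293 expressing GAL4 DNA-binding domain fused to human PPARδ aa 147-441, plus 5×GAL4-driven luciferase.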

SMILES | EC50 [nM]
CCc1cc(C(=O)c2ccc(OC(F)(F)F)cc2)c(NC(=O)C2CCN(CC(=O)O)CC2)s1 [Example 177, {4-[5-Ethyl-3-(4-trifluoromethoxy-benzoyl)-thiophen-2-ylcarbamoyl]-piperidin-1-yl}-acetic acid] | 1000 to 30000
CCc1cc(C(=O)c2ccc(OC(F)(F)F)cc2)c(NC(=O)CN2[C@@H](C(=O)O)CC[C@@H]2c2ccc(F)cc2)s1 [Example 181, (2R,5R)-1-{[5-Ethyl-3-(4-trifluoromethoxy-benzoyl)-thiophen-2-ylcarbamoyl]-methyl}-5-(4-fluoro-phenyl)-pyrrolidine-2-carboxylic acid] | < 100
CCc1cc(C(=O)c2ccc(OC(F)(F)F)cc2)c(NC(=O)CN2[C@@H](C(=O)O)CC[C@@H]2C)s1 [Example 182, (2R,5S)-1-{[5-Ethyl-3-(4-trifluoromethoxy-benzoyl)-thiophen-2-ylcarbamoyl]-methyl}-5-methyl-pyrrolidine-2-carboxylic acid] | < 100
CCc1cc(C(=O)c2ccc(OC(F)(F)F)cc2)c(NC(=O)CN2[C@@H](CC)CC[C@@H]2C(=O)O)s1 [Example 183, (2R,5S)-5-Ethyl-1-{[5-ethyl-3-(4-trifluoromethoxy-benzoyl)-thiophen-2-ylcarbamoyl]-methyl}-pyrrolidine-2-carboxylic acid] | < 100
CCc1cc(C(=O)c2ccc(OC(F)(F)F)cc2)c(NC(=O)CN2[C@@H](C(=O)O)CC[C@@H]2c2ccccc2)s1 [Example 184, (2R,5R)-1-{[5-Ethyl-3-(4-trifluoromethoxy-benzoyl)-thiophen-2-ylcarbamoyl]-methyl}-5-phenyl-pyrrolidine-2-carboxylic acid] | < 100
CCc1cc(C(=O)c2ccc(OC(F)(F)F)cc2)c(NC(=O)CN2[C@@H](C(=O)O)CC[C@@H]2C(C)C)s1 [Example 185, (2R,5R)-1-{[5-Ethyl-3-(4-trifluoromethoxy-benzoyl)-thiophen-2-ylcarbamoyl]-methyl}-5-isopropyl-pyrrolidine-2-carboxylic acid] | < 100
CCc1cc(C(=O)c2ccc(OC(F)(F)F)cc2)c(NC(=O)C(C)N2[C@@H](C(=O)O)CC[C@@H]2C)s1 (stereo partly drawn) [Example 186, (2R,5S)-1-{1-[5-Ethyl-3-(4-trifluoromethoxy-benzoyl)-thiophen-2-ylcarbamoyl]-ethyl}-5-methyl-pyrrolidine-2-carboxylic acid] | < 100
CCc1cc(C(=O)c2ccc(Cl)cc2)c(NC(=O)CN2[C@@H](C(=O)O)CC[C@@H]2c2ccccc2)s1 [Example 187, (2R,5R)-1-{[3-(4-Chloro-benzoyl)-5-ethyl-thiophen-2-ylcarbamoyl]-methyl}-5-phenyl-pyrrolidine-2-carboxylic acid hydrochloride] | 100 to 1000
O=C(CN1[C@@H](C(=O)O)CC[C@@H]1c1ccccc1)Nc1sc(Cl)cc1C(=O)c1ccc(OC(F)(F)F)cc1 [Example 188, (2R,5R)-1-{[5-Chloro-3-(4-trifluoromethoxy-benzoyl)-thiophen-2-ylcarbamoyl]-methyl}-5-phenyl-pyrrolidine-2-carboxylic acid hydrochloride] | < 100
CCc1cc(C(=O)c2ccc(OC(F)(F)F)cc2)c(NC(=O)CN2CCCC2C(=O)O)s1 (stereo not shown) [Example 189, 1-{[5-Ethyl-3-(4-trifluoromethoxy-benzoyl)-thiophen-2-ylcarbamoyl]-methyl}-pyrrolidine-2-carboxylic acid] | < 100
CCc1cc(C(=O)c2ccc(OC(F)(F)F)cc2)c(NC(=O)CNC2(C(=O)O)CCCC2)s1 [Example 190, 1-({[5-Ethyl-3-(4-trifluoromethoxy-benzoyl)-thiophen-2-ylcarbamoyl]-methyl}-amino)-cyclopentanecarboxylic acid] | < 100
CCc1cc(C(=O)c2ccc(OC(F)(F)F)cc2)c(NC(=O)CN[C@@H](CC)C(=O)O)s1 [Example 191, (S)-2-({[5-Ethyl-3-(4-trifluoromethoxy-benzoyl)-thiophen-2-ylcarbamoyl]-methyl}-amino)-butyric acid] | 100 to 1000
CCc1cc(C(=O)c2ccc(OC(F)(F)F)cc2)c(NC(=O)CN[C@@](C)(CC)C(=O)O)s1 [Example 192, (S)-2-({[5-Ethyl-3-(4-trifluoromethoxy-benzoyl)-thiophen-2-ylcarbamoyl]-methyl}-amino)-2-methyl-butyric acid] | 100 to 1000
CCc1cc(C(=O)c2ccc(OC(F)(F)F)cc2)c(NC(=O)CCN2CCC[C@@H]2C(=O)O)s1 [Example 193, (R)-1-{2-[5-Ethyl-3-(4-trifluoromethoxy-benzoyl)-thiophen-2-ylcarbamoyl]-ethyl}-pyrrolidine-2-carboxylic acid] | 100 to 1000
CCc1cc(C(=O)c2ccc(OC(F)(F)F)cc2)c(NC(=O)CCSCC(=O)O)s1 [Example 194, {2-[5-Ethyl-3-(4-trifluoromethoxy-benzoyl)-thiophen-2-ylcarbamoyl]-ethylsulfanyl}-acetic acid] | < 100
CCc1cc(C(=O)c2ccc(OC(F)(F)F)cc2)c(NC(=O)[C@H](C)SCC(=O)O)s1 [Example 195, {(S)-1-[5-Ethyl-3-(4-trifluoromethoxy-benzoyl)-thiophen-2-ylcarbamoyl]-ethylsulfanyl}-acetic acid] | < 100
CCc1cc(C(=O)c2ccc(OC(F)(F)F)cc2)c(NC(=O)CN(C)C(C)(C)C(=O)O)s1 [Example 196, 2-({[5-Ethyl-3-(4-trifluoromethoxy-benzoyl)-thiophen-2-ylcarbamoyl]-methyl}-methyl-amino)-2-methyl-propionic acid] | 1000 to 30000
CCc1cc(C(=O)c2ccc(OC(F)(F)F)cc2)c(NC(=O)CN(C)C2(C(=O)O)CC2)s1 [Example 197, 1-({[5-Ethyl-3-(4-trifluoromethoxy-benzoyl)-thiophen-2-ylcarbamoyl]-methyl}-methyl-amino)-cyclopropanecarboxylic acid] | 100 to 1000
CCc1cc(C(=O)c2ccc(OC(F)(F)F)cc2)c(NC(=O)CN(C)[C@@H](C)C(=O)O)s1 [Example 198, (S)-2-({[5-Ethyl-3-(4-trifluoromethoxy-benzoyl)-thiophen-2-ylcarbamoyl]-methyl}-methyl-amino)-propionic acid] | < 100

Source: patent publication US20100063065A1 (Inpharmatica Limited, priority 2005, published 2010)
